These results are taken from patent US6414157B1, “3-Substituted tetrahydropyridopyrimidinone derivatives, method for producing the same, and their use” (Abbott Laboratories, priority 1997, dated 2002).

Where a name gives a salt, the structure may show the parent alone.

Series [1] relates to serotonin release in the cortex. Conditions: after systemic administration; cited from earlier work.
In series [2] the test system is serotonin release in the dorsal raphe nucleus. Conditions: dorsal raphe nucleus of the rat; together with paroxetine; cited from earlier work.

Molecule `COc1ccccc1N1CCN(CCn2cnc3c(c2=O)CCN(Cc2ccccc2)C3)CC1` (as salt: hydrochloride) had a melting point of 181 °C.
`COc1ccccc1N1CCN(CCCn2cnc3c(c2=O)CN(Cc2ccccc2)CC3)CC1` (as salt: hydrochloride) had a melting point of 198 °C.
As to `COc1ccc(NC(=O)c2ccc(-c3ccc(-c4noc(C)n4)cc3C)cc2)cc1N1CCN(C)CC1` [GR 127 935], the “serotonin release in the cortex” value in series [1] is on record as “reduces serotonin release in the cortex”. The “effect of paroxetine on serotonin release” value in series [2] is reported as “potentiated”.

One may read the melting point as the temperature of the solid-liquid transition.
